Marks after values point to notes of the source that are not given here.
Assays:
[1] = system: hepatic fibrosis; assay: Inhibitory effect against hepatic fibrosis in SD rats (biliary duct ligation, Sirius red staining); assay type: in vivo, rat; conditions: BDL rats, 3 or 10 mg/kg orally twice a day for 1 week
Method: Male Spargue-Dawley rats (6 weeks, Korea Biolink) were kept under the conditions of 22 °C, 55% of relative humidity, and light-darkness cycle of 12 hours. Food and water were supplied ad libitum. For the ligation of biliary duct, the rats were anesthetized by inhalation of 1% halothane, abdomen of the rats were cut open, the distal and proximal biliary ducts were ligated, the part between the ligation sites were cut, 2 ml of saline was injected, and sutured. Test compound (Iii) was orally administered in a dosage of 3 mg/kg or 10 mg/kg twice a day. That is, the compound was dissolved in a cosolvent (PEG400:ethanol:Tween80=15:7.5:2.5), diluted with phosphate buffer (pH 7.4) by five times, and administered. To the control group was administered the solution without the test compound. The administration was made for 1 week after 1 week from the ligation of biliary duct. After the administration, the rats were sacrificed. The livers were fixed by 10% neutral formalin and a paraffin section of 5 μm thickness was prepared and stained by 0.1% Sirius red (Direct red 80, Sigma). The tissue section was investigated by an optical microscope to observe the collagen fibers stained in red, and the results are represented in FIG. 1.

[2] = system: Jurkat cell (ATCC TIB-152); assay: Jurkat cell apoptosis by Fas antibody, WST-1 method; assay type: cell-based; conditions: for IC50: apoptosis using Fas antibody, WST-1
Outline: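 Jurkat cells (ATCC TIB-152) induced to apoptosis with Fas antibody in the presence of inhibitor. Viable cells quantified by WST-1 colour change, absorbance at 440 nm.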

[3] = system: hepatic cell apoptosis; assay: Inhibitory effect against apoptosis during the bile stagnation in SD rats (TUNEL staining); assay type: in vivo, rat; conditions: for TUNEL positive cells/field: BDL rats
Method: Male Spargue-Dawley rats (6 weeks, Korea Biolink) were kept under the conditions of 22 °C, 55% of relative humidity, and light-darkness cycle of 12 hours. Food and water were supplied ad libitum. For the ligation of biliary duct, the rats were anesthetized by inhalation of 1% halothane, abdomen of the rats were cut open, the distal and proximal biliary ducts were ligated, the part between the ligation sites were cut, 2 ml of saline was injected, and sutured.
Test compound (Iii) was orally administered in a dosage of 3 mg/kg or 10 mg/kg twice a day. That is, the compound was dissolved in a cosolvent (PEG400:ethanol:Tween80=15:7.5:2.5), diluted with phosphate buffer (pH 7.4) by five times, and administered. To the control group was administered the solution without the test compound. The administration was made for 1 week after 1 week from the ligation of biliary duct.
The test compound (Iii) was administered to the SD rats whose biliary ducts were ligated according to the procedure as Step 1 of Experiment 3. After 2 weeks from the operation, the rats were sacrificed. The livers were fixed by 10% neutral formalin and a paraffin section of 5 μm thickness was prepared. TUNEL staining was carried out using ApopTag Peroxidase In Situ Apoptosis Detection kit (Chemicon) according to the manufacturer's instruction. More than 10 sites of the TUNEL stained liver tissue were photographed in 200 magnifications without any overlap, of which result was shown in FIG. 2. The number of cells suffering apoptosis in each test group was counted and represented in the following Table 2. In the following table, the Sham operation means the case where the biliary duct was exposed but not ligated, and the BDL operation means the case where only the vehicle was administered after the ligation of biliary duct.

[4] = system: rheumatic arthritis; assay: Therapeutic effect for rheumatic arthritis in rats (type II collagen); assay type: in vivo, rat
Method: Female Lewis rats (7 weeks, Charles River, Japan) were kept under the conditions of 22 °C, 55% of relative humidity, and light-darkness cycle of 12 hours. Food and water were supplied ad libitum. Type II collagen (bovine) was dissolved in 0.05M acetic acid in a concentration of 2 mg/ml at 4[…], and the same amount of Complete Freund's adjuvant was added to emulsify the solution at 4[…]. 0.1 ml of thus emulsified solution was subcutaneously injected into the rattail of the Lewis rats. After 7 days, the emulsified solution was injected again in the same manner. From the date on which the second emulsified solution was injected, vehicle (a mixture of PEG400:ethanol:Tween80=15:7.5:2.5 was diluted by ten times with phosphate buffer) wherein the test compound is dissolved or the vehicle alone was orally administered into the rats every day. On Day 14 from the first injection of the collagen-containing emulsified solution, the right rear foot volume was measured again by plethysmometer (see Table 4). The edema inhibition (%) was determined by the following Equation 3. […]
Further, p-value was calculated by Student t-test from the increased foot volume on Day 14 to confirm the significance.

IC50 ([2]; Homo sapiens, Jurkat): 100 nM
IC50 [2]: ≤ 100 nM
Structure (SMILES): CC(C)[C@@]1(C(=O)NC(CC(=O)O)C(=O)CF)CC(c2nccc3ccccc23)=NO1 (stereo partly drawn) [Iii, 5-Fluoro-3-({[(5R)-5-isopropyl-3-(1-isoquinolinyl)-4,5-dihydro-5-isoxazolyl]carbonyl}amino)-4-oxopentanoic acid]
fibrosis by Sirius Red staining [1]: almost no fibrosis
increased inhibitory activity against Jurkat cell compared with LB84068MP [2]: ≥ 10 times
TUNEL positive cells/field ([3]; 3 mg/kg orally twice a day for 1 week): 4.12 ± 1.3 TUNEL positive cells/field
TUNEL positive cells/field ([3]; 10 mg/kg orally twice a day for 1 week): 5.66 ± 1.34 TUNEL positive cells/field
inhibition of apoptosis (TUNEL staining) ([3]; bile stagnation model, rats): 75%
Foot volume (ml) Day 14 Average ([4]; 10 mg/kg oral every day, Day 14): 1.394* ml
Foot volume (ml) Day 0 Average ([4]; 10 mg/kg oral group, Day 0): 1.134 mL
